Results: patent US20130267494A1, “1,4-OXAZEPANE DERIVATIVES” (priority 2010, published 2013)
Counter-ions that a name gives are not always drawn.

Key:
[1] = biological target: T1, human dopamine transporter (Homo sapiens, UniProt Q01959); assay: Inhibitory action on human dopamine transporter ([3H]-dopamine uptake in CHO cells); type: cell-based; details: CHO, relative to inhibitory activity of 100 μM Nomifensine as 100%, read-out: inhibitory rate (%); for inhibition at 1 µM: compound 1 μM
T1 construct: expressed in transfected cells
How it was run: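 CHO-K1 cells stably expressing human dopamine transporter, exposed to compound at 10 μM or 1 μM in HEPES-buffered saline with 0.5% BSA. [3H]-dopamine uptake measured over 60 min by scintillation counting. Activity expressed relative to 100 μM nomifensine as 100%.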

SD female rats = assay: Measurement of urethral resistance increasing effect (leak point pressure, oral administration); type: in vivo, rat
Protocol: The urethral resistance increasing effect in rat was measured by a modified method of Matsumoto et al. (WO2009/063992) as follows. That is, SD female rats (CLEA Japan, Inc.) were anesthetized with isoflurane (1.0%; Abbott), and the spinal cord was transected at Th8-9 to avoid the voiding reflex. After laparotomy, an intravesical pressure measurement catheter and a saline infusion catheter (PE-100; Clay Adams) were inserted into the bladder. Thereafter, the abdomen of the rat was closed with aronalpha A “Sankyo” (Daiichi Sankyo). The rat with an inserted catheter was placed in a Bollman cage (KN-326 Bollman cage TYPE III; Natsume). The intravesical pressure measurement catheter was connected to a computer via a pressure transducer (DX-100; Nihon Koden), an amplifier (RPM-6008M; Nihon Koden/303638; SAN-EI), and a multi-channel data analyzer (MP150/MP100; Biopack), and changes in the intravesical pressure were recorded on a hard disc at a frequency of 100 samples/sec. The saline infusion catheter was connected to a 50 mL syringe (Terumo) filled with saline colored with Evans Blue (Wako). The saline was infused into the bladder from the 50 mL syringe filled with saline at a rate of 0.1 mL/sec by using an infusion pump (Kds100; KD Scientific). When the saline leaked from the urethral orifice, infusion was discontinued, and the saline in the bladder was released. The maximum pressure observed during infusion of saline into the bladder and leakage thereof was taken as an LPP (Leak point pressure) value. The measurement was repeated until the LPP value was stabilized, and an average of continuous three stable LPP values was taken as the result. In addition, the measurement of drug effect was started 1 hr after the animal was placed in the Bollman cage. The LPP value (Pre value) was measured, a drug was orally administered, and the measurement of LPP value (Post value) was again started 15 min, 30 min, 1 hr, 2 hr and 4 hr after administration. The urethral resistance increasing effect by the drug was shown by the difference between the LPP value (Post value) and LPP value (Pre value). The drug was orally administered at 2.0 mL/kg, using 0.5% methylcellulose as a vehicle. For detection of a significant difference in the urethral resistance increasing effect by the drug as compared to the vehicle, the following method was used. For comparison of 3 or more groups, the Williams' test was used for a parametric test, and the Shirley-Williams' test was used for a non-parametric test. For comparison of 2 groups, the Student's t-test was used for a parametric test, and the […] was used for a non-parametric test.

T1 sequence (Q01959 whole entry): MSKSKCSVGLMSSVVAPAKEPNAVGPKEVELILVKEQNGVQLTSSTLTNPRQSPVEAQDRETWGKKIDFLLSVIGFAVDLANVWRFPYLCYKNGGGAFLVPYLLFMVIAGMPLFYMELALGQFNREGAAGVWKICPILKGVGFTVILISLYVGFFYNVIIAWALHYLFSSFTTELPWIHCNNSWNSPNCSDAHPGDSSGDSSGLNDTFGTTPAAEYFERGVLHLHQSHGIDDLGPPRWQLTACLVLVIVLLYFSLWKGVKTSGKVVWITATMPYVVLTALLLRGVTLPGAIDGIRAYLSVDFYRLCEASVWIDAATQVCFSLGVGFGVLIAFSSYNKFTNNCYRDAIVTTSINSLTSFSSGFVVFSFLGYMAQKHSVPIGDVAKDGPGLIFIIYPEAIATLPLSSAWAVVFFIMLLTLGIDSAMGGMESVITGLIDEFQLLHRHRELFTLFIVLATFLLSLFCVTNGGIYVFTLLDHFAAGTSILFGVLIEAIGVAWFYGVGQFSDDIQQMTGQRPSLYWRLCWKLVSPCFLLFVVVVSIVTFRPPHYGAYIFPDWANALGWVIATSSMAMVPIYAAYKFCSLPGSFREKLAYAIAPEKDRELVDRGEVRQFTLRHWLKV

| Compound | inhibition at 1 µM [1] | inhibition at 10 µM ([1]; compound 10 μM) | urethral resistance increasing effect (cmH2O) (SD female rats; 1.0 mg/kg oral, 15 min later) | urethral resistance increasing effect (cmH2O) (SD female rats; 1.0 mg/kg oral, 30 min later) | urethral resistance increasing effect (cmH2O) (SD female rats; 3.0 mg/kg oral, 15 min later) | urethral resistance increasing effect (cmH2O) (SD female rats; 3.0 mg/kg oral, 30 min later) | urethral resistance increasing effect (cmH2O) (SD female rats; 10.0 mg/kg oral, 15 min later) | urethral resistance increasing effect (cmH2O) (SD female rats; 10.0 mg/kg oral, 30 min later) | urethral resistance increasing effect (cmH2O) (SD female rats; 0.3 mg/kg oral, 15 min later) | urethral resistance increasing effect (cmH2O) (SD female rats; 0.3 mg/kg oral, 30 min later) | urethral resistance increasing effect (cmH2O) (SD female rats; 30.0 mg/kg oral, 15 min later) | urethral resistance increasing effect (cmH2O) (SD female rats; 30.0 mg/kg oral, 30 min later) |
| --- | --- | --- | --- | --- | --- | --- | --- | --- | --- | --- | --- | --- |
| CC(=O)NC[C@H]1CNCCO[C@@H]1c1ccc(Cl)c(Cl)c1 (racemic) [Example 6, N-{[(6RS,7SR)-7-(3,4-dichlorophenyl)-1,4-oxazepan-6-yl]methyl}acetamide monohydrochloride] | 33% | 84% | – | – | – | – | – | – | – | – | – | – |
| CC(=O)NC[C@@H]1CNCCO[C@H]1c1ccc(Cl)c(Cl)c1 [Example 32, N-{[(6S,7R)-7-(3,4-dichlorophenyl)-1,4-oxazepan-6-yl]methyl}acetamide 0.5 fumarate] | 34% | – | – | – | – | – | 18.3 ± 2.1 cmH2O | 17.1 ± 3.2 cmH2O | – | – | – | – |
| CC(=O)N[C@@H]1CNCCO[C@H]1c1ccc(Cl)c(Cl)c1 [Example 36, N-[(6R,7S)-7-(3,4-dichlorophenyl)-1,4-oxazepan-6-yl]acetamide monofumarate] | 53% | – | – | – | – | – | 15.0 ± 1.8 cmH2O | 14.3 ± 1.8 cmH2O | – | – | – | – |
| O=c1[nH]c(-c2cccn(C[C@@H]3CNCCO[C@H]3c3ccc(Cl)c(F)c3)c2=O)no1 [Example 43, 1-{[(6S,7R)-7-(4-chloro-3-fluorophenyl)-1,4-oxazepan-6-yl]methyl}-3-(5-oxo-4,5-dihydro-1,2,4-oxadiazol-3-yl)pyridin-2(1H)-one monohydrochloride] | 15% | – | – | – | 8.4 ± 3.0 cmH2O | 11.8 ± 2.8 cmH2O | 13.9 ± 2.1 cmH2O | 14.8 ± 0.9 cmH2O | – | – | – | – |
| O=C(O)c1cccn(C[C@@H]2CNCCO[C@H]2c2ccc(Cl)c(F)c2)c1=O [Example 44, 1-{[(6S,7R)-7-(4-chloro-3-fluorophenyl)-1,4-oxazepan-6-yl]methyl}-2-oxo-1,2-dihydropyridine-3-carboxylic acid monohydrochloride] | 8% | – | 8.6 ± 2.6 cmH2O | 9.8 ± 2.6 cmH2O | 15.5 ± 3.7 cmH2O | 13.7 ± 3.3 cmH2O | 18.8 ± 1.5 cmH2O | 16.4 ± 1.5 cmH2O | 0.1 ± 2.5 cmH2O | 2.2 ± 2.6 cmH2O | – | – |
| O=c1[nH]c(-c2cccnc2O[C@@H]2CNCCO[C@H]2c2ccc(Cl)c(F)c2)no1 [Example 556, 3-(2-{[(6R,7S)-7-(4-chloro-3-fluorophenyl)-1,4-oxazepan-6-yl]oxy}pyridin-3-yl)-1,2,4-oxadiazol-5(4H)-one monohydrochloride] | 71% | – | – | – | 6.0 ± 2.0 cmH2O | 5.0 ± 2.9 cmH2O | 13.4 ± 1.7 cmH2O | 10.6 ± 1.8 cmH2O | – | – | 17.8 ± 3.4 cmH2O | 17.5 ± 2.3 cmH2O |

More lines, main results first:

| inhibition at 1 µM [1] | Compound | inhibition at 10 µM ([1]; compound 10 μM) | urethral resistance increasing effect (cmH2O) (SD female rats; 1.0 mg/kg oral, 15 min later) | urethral resistance increasing effect (cmH2O) (SD female rats; 1.0 mg/kg oral, 30 min later) | urethral resistance increasing effect (cmH2O) (SD female rats; 3.0 mg/kg oral, 15 min later) | urethral resistance increasing effect (cmH2O) (SD female rats; 3.0 mg/kg oral, 30 min later) | urethral resistance increasing effect (cmH2O) (SD female rats; 10.0 mg/kg oral, 15 min later) | urethral resistance increasing effect (cmH2O) (SD female rats; 10.0 mg/kg oral, 30 min later) | urethral resistance increasing effect (cmH2O) (SD female rats; 0.3 mg/kg oral, 15 min later) | urethral resistance increasing effect (cmH2O) (SD female rats; 0.3 mg/kg oral, 30 min later) | urethral resistance increasing effect (cmH2O) (SD female rats; 30.0 mg/kg oral, 15 min later) | urethral resistance increasing effect (cmH2O) (SD female rats; 30.0 mg/kg oral, 30 min later) |
| --- | --- | --- | --- | --- | --- | --- | --- | --- | --- | --- | --- | --- |
| 33% | O=c1[nH]c(-c2cccn(C[C@@H]3CNCCO[C@H]3c3ccc(Cl)c(Cl)c3)c2=O)no1 [Example 31, 1-{[(6S,7R)-7-(3,4-dichlorophenyl)-1,4-oxazepan-6-yl]methyl}-3-(5-oxo-4,5-dihydro-1,2,4-oxadiazol-3-yl)pyridin-2(1H)-one monohydrochloride] | – | 6.7 ± 2.5 cmH2O | 9.0 ± 3.8 cmH2O | 13.2 ± 3.8 cmH2O | 14.5 ± 3.6 cmH2O | 16.2 ± 2.1 cmH2O | 14.3 ± 2.2 cmH2O | – | – | – | – |
| 35% | COCC(=O)NC[C@@H]1CNCCO[C@H]1c1ccc(Cl)c(Cl)c1 [Example 33, N-{[(6S,7R)-7-(3,4-dichlorophenyl)-1,4-oxazepan-6-yl]methyl}-2-methoxyacetamide monohydrochloride] | – | – | – | – | – | 21.8 ± 3.3 cmH2O | 20.9 ± 3.4 cmH2O | – | – | – | – |
| 51% | NS(=O)(=O)N[C@@H]1CNCCO[C@H]1c1ccc(Cl)c(Cl)c1 [Example 37, N-[(6R,7S)-7-(3,4-dichlorophenyl)-1,4-oxazepan-6-yl]sulfamide monohydrochloride] | – | – | – | 8.5 ± 1.4 cmH2O | 7.6 ± 1.6 cmH2O | 16.3 ± 1.2 cmH2O | 17.2 ± 1.9 cmH2O | – | – | – | – |
| 11% | COCC(=O)NC[C@@H]1CNCCO[C@H]1c1ccc(Cl)c(F)c1 [Example 38, N-{[(6S,7R)-7-(4-chloro-3-fluorophenyl)-1,4-oxazepan-6-yl]methyl}-2-methoxyacetamide monohydrochloride] | – | 12.9 ± 3.3 cmH2O | 9.3 ± 1.6 cmH2O | 18.0 ± 2.5 cmH2O | 17.4 ± 2.4 cmH2O | 21.6 ± 2.9 cmH2O | 21.3 ± 3.3 cmH2O | 4.2 ± 1.7 cmH2O | 5.1 ± 1.7 cmH2O | – | – |
| 17% | [2H]C([2H])([2H])OCC(=O)NC[C@@H]1CNCCO[C@H]1c1ccc(Cl)c(F)c1 [Example 39, N-{[(6S,7R)-7-(4-chloro-3-fluorophenyl)-1,4-oxazepan-6-yl]methyl}-2-[(^2H3)methyloxy]acetamide monohydrochloride] | – | 12.3 ± 2.2 cmH2O | 8.7 ± 2.6 cmH2O | 15.8 ± 1.7 cmH2O | 14.1 ± 1.5 cmH2O | 17.9 ± 1.8 cmH2O | 17.1 ± 2.3 cmH2O | – | – | – | – |
| 9% | CCOCC(=O)NC[C@@H]1CNCCO[C@H]1c1ccc(Cl)c(F)c1 [Example 40, N-{[(6S,7R)-7-(4-chloro-3-fluorophenyl)-1,4-oxazepan-6-yl]methyl}-2-ethoxyacetamide monohydrochloride] | – | 8.5 ± 1.9 cmH2O | 8.6 ± 2.6 cmH2O | 11.4 ± 1.9 cmH2O | 12.8 ± 1.6 cmH2O | 16.6 ± 2.0 cmH2O | 17.2 ± 2.2 cmH2O | – | – | – | – |
| 11% | CC(C)OCC(=O)NC[C@@H]1CNCCO[C@H]1c1ccc(Cl)c(F)c1 [Example 41, N-{[(6S,7R)-7-(4-chloro-3-fluorophenyl)-1,4-oxazepan-6-yl]methyl}-2-(1-methylethoxy)acetamide monohydrochloride] | – | – | – | 9.8 ± 3.8 cmH2O | 9.6 ± 2.3 cmH2O | 17.8 ± 1.6 cmH2O | 16.1 ± 1.5 cmH2O | – | – | – | – |
| 52% | OC[C@H](O)[C@@H]1OCCNC[C@H]1c1ccc(Cl)c(Cl)c1 [Example 45, (1S)-1-[(6R,7R)-6-(3,4-dichlorophenyl)-1,4-oxazepan-7-yl]ethane-1,2-diol monohydrochloride] | – | 10.0 ± 2.6 cmH2O | 13.4 ± 1.2 cmH2O | 16.9 ± 1.4 cmH2O | 17.5 ± 2.8 cmH2O | 21.0 ± 2.0 cmH2O | 22.1 ± 2.0 cmH2O | 6.4 ± 1.3 cmH2O | 9.3 ± 3.3 cmH2O | – | – |
